Reference: ChEMBL document CHEMBL5352397, “Exploring gabosine and chlorogentisyl alcohol derivatives from a marine-derived fungus as EcGUS inhibitors with informatic assisted approaches” (Eur J Med Chem, 2022)
Calls of active or inactive are those of the source. No cut-off for these calls is given here.

Legend:
NAMALVA = assay: Antiproliferative activity against human NAMALVA cells assessed as cell viability at 20 uM incubated for 48 hrs by MTT assay; format: functional; conditions: read-out: Activity
Beta-glucuronidase [1] = molecular target: T1, Beta-glucuronidase (Escherichia coli (strain K12), UniProt P05804); assay: Inhibition of Escherichia coli beta-glucuronidase assessed as reduction of p-nitrophenol release using beta-PNPG as substrate incubated for 30 mins by Spectra max microplate reader analysis
[2] = molecular target: Beta-glucuronidase (Escherichia coli (strain K12)) (UniProt P05804); assay: Inhibition of Escherichia coli beta-glucuronidase assessed as reduction of p-nitrophenol release using beta-PNPG as substrate at 10 uM incubated for 30 mins by Spectra max microplate reader analysis relative to control
[3] = Antiproliferative activity against human U266B cells assessed as cell viability at 20 uM incubated for 48 hrs by MTT assay; format: functional; conditions: read-out: Activity
Beta-glucuronidase [4] = molecular target: T1, Beta-glucuronidase; assay: Inhibition of Escherichia coli beta-glucuronidase assessed as inhibition constant using beta-PNPG as substrate incubated for 30 mins by Lineweaver-Burk plot analysis
Beta-glucuronidase [5] = molecular target: T1, Beta-glucuronidase; assay: Non-competitive inhibition of Escherichia coli beta-glucuronidase assessed as inhibition constant using beta-PNPG as substrate incubated for 30 mins by Lineweaver-Burk plot analysis
Beta-glucuronidase [6] = molecular target: T1, Beta-glucuronidase; assay: Non-competitive inhibition of Escherichia coli beta-glucuronidase assessed as reduction of p-nitrophenol release using beta-PNPG as substrate incubated for 30 mins by Spectra max microplate reader analysis
[7] = molecular target: Beta-glucuronidase (Escherichia coli (strain K12)) (UniProt P05804); assay: Non-competitive inhibition of Escherichia coli beta-glucuronidase assessed as reduction of p-nitrophenol release using beta-PNPG as substrate at 10 uM incubated for 30 mins by Spectra max microplate reader analysis relative to control
[8] = molecular target: Beta-glucuronidase (Escherichia coli (strain K12)) (UniProt P05804); assay: Inhibition of Escherichia coli beta-glucuronidase using beta-PNPG as substrate at 2 to 8 uM incubated for 30 mins by Lineweaver-Burk plot analysis; conditions: dose 2-8 µM
[9] = molecular target: Beta-glucuronidase (Escherichia coli (strain K12)) (UniProt P05804); assay: Inhibition of Escherichia coli beta-glucuronidase using beta-PNPG as substrate at 50 to 100 uM incubated for 30 mins by Lineweaver-Burk plot analysis; conditions: dose 50-100 µM

T1 sequence (P05804 whole entry): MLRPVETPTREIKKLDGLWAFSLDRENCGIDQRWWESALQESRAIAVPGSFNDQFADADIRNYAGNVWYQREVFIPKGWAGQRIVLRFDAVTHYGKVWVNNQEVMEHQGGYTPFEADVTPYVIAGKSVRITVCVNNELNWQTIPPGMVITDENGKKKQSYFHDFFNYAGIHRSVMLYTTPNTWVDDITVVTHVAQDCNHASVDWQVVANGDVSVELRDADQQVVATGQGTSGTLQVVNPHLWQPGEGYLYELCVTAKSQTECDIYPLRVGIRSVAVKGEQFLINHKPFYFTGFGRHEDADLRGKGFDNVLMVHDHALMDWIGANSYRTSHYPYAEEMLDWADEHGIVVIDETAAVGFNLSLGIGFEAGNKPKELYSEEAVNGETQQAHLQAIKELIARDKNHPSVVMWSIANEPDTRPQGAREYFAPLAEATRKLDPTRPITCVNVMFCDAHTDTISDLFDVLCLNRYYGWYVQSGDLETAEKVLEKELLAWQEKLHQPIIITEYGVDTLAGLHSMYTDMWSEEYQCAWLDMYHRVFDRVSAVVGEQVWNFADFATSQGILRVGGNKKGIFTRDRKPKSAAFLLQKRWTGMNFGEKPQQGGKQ
Chain of Beta-glucuronidase (Escherichia coli (strain K12)) (P05804 whole entry, looked up): as the sequence (P05804 whole entry) above

With O=C1C(Cl)=C[C@H](O)[C@H](O)[C@@]12CCc1cc(O)cc(Cl)c1O2 the viability at 20 µM (NAMALVA) was -0.33%, the IC50 (Beta-glucuronidase [1]) was 2150 nM and the inhibition [2] was 86.3%. For the same compound, the viability at 20 µM [3] was 52.6% and the Ki (Beta-glucuronidase [4]) was 4430 nM.

With C[C@@H]1C[C@@H](O)[C@H](O[C@@H]2[C@@H](O)C=C(Cl)C(=O)[C@]23CCc2cc(O)cc(Cl)c2O3)C[C@@H]1O the inhibition [2] was 15.3%.

Compound CCCCO[C@@H]1C(=O)C(C)=C[C@@H](O)[C@H]1O has a viability at 20 µM (NAMALVA) of 91.7%, an IC50 (Beta-glucuronidase [1]) of 4610 nM and an inhibition [2] of 86.5%. It also gave a viability at 20 µM [3] of 109% and a Ki (Beta-glucuronidase [4]) of 7320 nM.

Compound CC1=C[C@@H](O)[C@@H](O)[C@H](Cl)C1=O has a viability at 20 µM (NAMALVA) of 113%, an IC50 (Beta-glucuronidase [1]) of 1010 nM and an inhibition [2] of 100%. For the same compound, the viability at 20 µM [3] was 105% and the Ki (Beta-glucuronidase [4]) was 670 nM.

With Cc1cc2c(c(=O)o1)C[C@H]1[C@@H](O)[C@H](O)[C@H](O)[C@H]3c4c(cc(C)oc4=O)O[C@]31O2 the inhibition [2] was 5.16%.

With O=C(OCc1cc(O)cc(Cl)c1O)c1cnccc1O the viability at 20 µM (NAMALVA) was 39.4%, the IC50 (Beta-glucuronidase [1]) was 1950 nM and the inhibition [2] was 87.9%. For the same compound, the viability at 20 µM [3] was 94.9% and the Ki (Beta-glucuronidase [4]) was 1550 nM.

For OCc1cc(O)cc(Cl)c1O, the viability at 20 µM (NAMALVA) was 70.4%, the Ki (Beta-glucuronidase [5]) was 580 nM and the IC50 (Beta-glucuronidase [6]) was 740 nM. The inhibition [7] was 101% and the viability at 20 µM [3] was 94.1%.

Work on C[C@H]1C[C@H](O)[C@@H](OCc2cc(O)cc(Cl)c2O)C[C@H]1O yielded a viability at 20 µM (NAMALVA) of -3.03%, an IC50 (Beta-glucuronidase [1]) of 400 nM and an inhibition [2] of 91.8%. The viability at 20 µM [3] was 7.86%, the Ki (Beta-glucuronidase [4]) was 3470 nM and the inhibition [8] was “Active”.

In the case of CCCCOCC1=C[C@@H](O)[C@@H](O)[C@H](O)C1=O, the inhibition [2] is reported as 39.3%.

For C[C@H]1C[C@H](O)[C@@H](O)C[C@H]1OCc1cc(O)cc(Cl)c1O, the viability at 20 µM (NAMALVA) was 71.6%, the IC50 (Beta-glucuronidase [1]) was 630 nM and the inhibition [2] was 92.8%. For the same compound, the viability at 20 µM [3] was 115% and the Ki (Beta-glucuronidase [4]) was 1640 nM.

Cc1cccc(O)c1C(=O)O[C@@H]1C(=O)C(CO)=C[C@@H](O)[C@H]1O gave an inhibition [2] of 27.6%.

Work on Cc1cc2c(c(=O)o1)C[C@@H]1C(=O)C(Cl)=C[C@H](O)[C@H]1O2 yielded an inhibition [2] of 55.1%.

In the case of O=c1[nH]cc(F)c(=O)[nH]1 [FLUOROURACIL], the viability at 20 µM (NAMALVA) is reported as 11.3% and the viability at 20 µM [3] is reported as 0%.

Compound O=Cc1cc(O)cc(Cl)c1O has an inhibition [2] of 69%.

Cc1cc2c(c(=O)o1)C[C@H]1C(=O)[C@@H](O)[C@H](O)[C@H](O)[C@H]1O2 showed an inhibition [2] of 25.6%.

For O=C1C(Cl)=C[C@H](O)[C@@H](O)[C@]12CCc1cc(O)cc(Cl)c1O2, the inhibition [2] was 49.9%.

For COCc1cccc(Cl)c1O, the inhibition [2] was 7.73%.

Oc1cc(Cl)c(O)c(COCc2cc(O)cc(Cl)c2O)c1 showed a viability at 20 µM (NAMALVA) of 56.6%, an IC50 (Beta-glucuronidase [1]) of 580 nM and an inhibition [2] of 101%. For the same compound, the viability at 20 µM [3] was 88.6% and the Ki (Beta-glucuronidase [4]) was 710 nM.

In the case of O=C(O)c1cc(=O)c2ccccc2[nH]1, the inhibition [2] is reported as 10.8%.

C[C@H]1C[C@H](OCc2cc(O)cc(Cl)c2O)[C@@H](O)C[C@H]1O gave a viability at 20 µM (NAMALVA) of 71.7%, an IC50 (Beta-glucuronidase [1]) of 640 nM and an inhibition [2] of 92.1%. For the same compound, the viability at 20 µM [3] was 77.8% and the Ki (Beta-glucuronidase [4]) was 4270 nM.

With O=C1C(Cc2cc(O)cc(Cl)c2O)=C[C@H](O)[C@@H](O)[C@@]12CCc1cc(O)c(Cl)c(Cl)c1O2 the viability at 20 µM (NAMALVA) was 83.9%, the IC50 (Beta-glucuronidase [1]) was 240 nM and the inhibition [2] was 98%. For the same compound, the viability at 20 µM [3] was 95%, the Ki (Beta-glucuronidase [4]) was 1090 nM and the inhibition [8] was “Active”.

For O=C1C(COCc2cc(O)cc(Cl)c2O)=C[C@@H](O)[C@@H](O)[C@@H]1Cl, the viability at 20 µM (NAMALVA) was 65.1%, the IC50 (Beta-glucuronidase [1]) was 1910 nM and the inhibition [2] was 87.1%. For the same compound, the viability at 20 µM [3] was 105% and the Ki (Beta-glucuronidase [4]) was 860 nM.

In the case of Cc1cc(O)c(Cc2cc(O)cc(Cl)c2O)c(=O)o1, the inhibition [2] is reported as 20.1%.

Compound O=C1C(Cl)=C[C@H](O)[C@@H](O)[C@@]12CCc1cc(O)cc(Cl)c1O2 has a viability at 20 µM (NAMALVA) of 37%, an IC50 (Beta-glucuronidase [1]) of 2830 nM and an inhibition [2] of 96.5%. For the same compound, the viability at 20 µM [3] was 79.6% and the Ki (Beta-glucuronidase [4]) was 1160 nM.

CCC1=C[C@@H](O)[C@@H](O)[C@H](Cl)C1=O showed a viability at 20 µM (NAMALVA) of 79.2%, a Ki (Beta-glucuronidase [5]) of 1260 nM and an IC50 (Beta-glucuronidase [6]) of 1260 nM. It also gave an inhibition [7] of 99.1% and a viability at 20 µM [3] of 96.3%.

Work on CO[C@@H]1[C@@H](O)C=C(Cl)C(=O)[C@]12CCc1cc(O)cc(Cl)c1O2 yielded a viability at 20 µM (NAMALVA) of 58.3%, an IC50 (Beta-glucuronidase [1]) of 1420 nM and an inhibition [2] of 98.4%. For the same compound, the viability at 20 µM [3] was 84.9% and the Ki (Beta-glucuronidase [4]) was 2660 nM.

In the case of O=C(O)[C@@H](O)[C@H]1OC(=O)[C@H](O)[C@H]1O [D-SACCHARIC ACID 1,4-LACTONE], the inhibition [9] is reported as “Active”, the IC50 (Beta-glucuronidase [1]) is reported as 56700 nM and the inhibition [2] is reported as 11.6%.
